Experimental findings from publication PMC11851448, “Meliponini Geopropolis Extracts Induce ROS Production and Death in Leishmania amazonensis Promastigotes and Axenic Amastigotes In Vitro” (Biology, 2025) are described below.

The target in the assay is T1, LiARG (recombinant arginase from L. infantum) (Leishmania infantum, UniProt A4IB49).
T1 construct: gene LINJ_35_1490; recombinant, purified
As to the kind of experiment: urea release, colorimetric UREA CE kit, […] nm. It counts as biochemical.

One may read the IC50 as the concentration needed to halve the response being measured.

On to `O=c1c(O)c(-c2ccc(O)c(O)c2)oc2cc(O)cc(O)c12` [quercetin], for which the IC50 was 23.2 µM.
